These results are taken from paper PMC2632761 (Journal of biomolecular screening, 2009).

Where two headings read alike, the source gives them in different places.

One assay deals with T1, hTRβ (Homo sapiens, UniProt P10828).
T1 sequence (P10828 217-461 limits assumed): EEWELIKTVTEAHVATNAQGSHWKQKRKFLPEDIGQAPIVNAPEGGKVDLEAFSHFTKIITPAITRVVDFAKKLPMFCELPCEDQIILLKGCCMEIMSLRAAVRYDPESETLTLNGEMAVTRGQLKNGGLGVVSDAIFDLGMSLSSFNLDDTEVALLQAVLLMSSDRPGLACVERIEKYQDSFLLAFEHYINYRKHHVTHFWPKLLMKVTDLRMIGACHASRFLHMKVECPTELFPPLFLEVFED
Kind of assay: TRβ SPA ligand competition binding assay.

A further assay has as its target T2, hTRα (Homo sapiens, UniProt P10827).
T2 sequence (P10827 148-410 isoform P10827-2 limits assumed): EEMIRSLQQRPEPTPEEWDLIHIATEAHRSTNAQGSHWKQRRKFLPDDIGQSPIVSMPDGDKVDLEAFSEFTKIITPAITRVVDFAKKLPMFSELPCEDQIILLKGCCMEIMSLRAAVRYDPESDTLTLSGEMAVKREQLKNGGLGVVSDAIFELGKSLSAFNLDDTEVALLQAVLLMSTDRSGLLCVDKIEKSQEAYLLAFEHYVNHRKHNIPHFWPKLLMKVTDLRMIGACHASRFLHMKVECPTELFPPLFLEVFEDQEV
The assay is described as follows: TRα SPA ligand competition binding assay.

For assay [1], the target named is T3, AR-LBD (androgen receptor) (Pan troglodytes, UniProt O97775).
T3 sequence (O97775 655-911 limits assumed): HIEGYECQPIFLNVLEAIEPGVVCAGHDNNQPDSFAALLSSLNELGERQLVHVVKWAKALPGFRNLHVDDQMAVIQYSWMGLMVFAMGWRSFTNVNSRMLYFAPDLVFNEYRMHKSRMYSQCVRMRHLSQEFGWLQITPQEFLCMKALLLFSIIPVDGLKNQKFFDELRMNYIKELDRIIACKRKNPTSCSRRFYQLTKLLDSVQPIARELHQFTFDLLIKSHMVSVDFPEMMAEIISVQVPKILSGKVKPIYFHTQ
Kind of assay: AR SPA ligand competition binding assay.

The target of the next assay is T4, hPPARγ (Homo sapiens, UniProt P37231).
T4 sequence (P37231 238-503 limits assumed): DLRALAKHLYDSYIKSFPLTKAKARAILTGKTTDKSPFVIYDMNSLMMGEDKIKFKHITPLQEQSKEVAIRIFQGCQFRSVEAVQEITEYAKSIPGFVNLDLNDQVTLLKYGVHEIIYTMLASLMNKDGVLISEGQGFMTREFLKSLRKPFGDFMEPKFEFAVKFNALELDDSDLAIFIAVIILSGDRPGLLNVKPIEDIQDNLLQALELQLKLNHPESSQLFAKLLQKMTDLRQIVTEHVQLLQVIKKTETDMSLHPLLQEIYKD
The assay is described as follows: PPARγ SPA ligand competition binding assay.

A word on the IC50: it is the concentration at which inhibition is half-maximal. With `O=C(O)Cc1cc(I)c(Oc2cc(I)c(O)c(I)c2)c(I)c1` [T4Ac, 3,3’,5,5’-tetraiodothyroacetic acid], the IC50 on hTRβ (read-out: IC50 TRβ, SPA competition, 1 nM [125I]-T3) amounted to 5 ± 2 µM; on hTRα (read-out: IC50 TRα, SPA competition, 1 nM [125I]-T3), 10 ± 2 µM.

Turning to `C[C@]1(O)CC[C@H]2[C@@H]3CCC4=CC(=O)CCC4=C3C=C[C@@]21C` [Methyltrienolone (R1881), Methyltrienolone], the IC50 in assay [1] (IC50 AR) is 0.11 ± 0.02 µM.

For the compound `O=C(Nc1ccccc1)c1cc([N+](=O)[O-])ccc1Cl` [GW9662], the IC50 at hPPARγ (read-out: IC50 PPARγ, SPA competition, 40 nM [3H]-Rosiglitazone) was determined as 0.23 ± 0.02 µM.

Turning to `CC(C)(O)C(=O)Nc1ccc([N+](=O)[O-])c(C(F)(F)F)c1` [Hydroxyflutamide], the IC50 in assay [1] came out at 33 ± 8 µM.

Turning to `CCCCC/C=C\C/C=C\C/C=C\C/C=C\CCCC(=O)O` [Arachidonic Acid], on hPPARγ, the IC50 came to 4.2 ± 0.53 µM.

`O=C(O)c1cc(I)c(Oc2ccc(O)c(I)c2)c(I)c1` [T3Bz, 4-(4'-Hydroxy-3'-iodophenoxy)-3,5-diiodo-benzoic acid]: the IC50 on hTRβ worked out at 10 ± 4 µM; at hTRα it was 12 ± 2 µM.

At hPPARγ, `CCCCC/C=C\C/C=C\CCCCCCCC(=O)O` [Lineolic Acid] came in with an IC50 of 3.8 ± 0.49 µM.
